System: dopaminergic neurons (MPTP lesioning)
Test: MPTP model of Parkinson's Disease in mice, concurrent dosing paradigm
Format: in vivo
Details: 10 mg/kg p.o. with MPTP (30 mg/kg i.p.) for 5 days plus 5 further days; male CD1 mice; anti-tyrosine hydroxylase immunostaining at 18 days
Method: MPTP lesioning of dopaminergic neurons in mice was used as an animal model of Parkinson's Disease. Four week old male CD1 white mice were dosed i.p. with 30 mg/kg of MPTP for 5 days. Inventive compounds (4 mg/kg), or vehicle, were administered s.c. along with the MPTP for 5 days, as well as for an additional 5 days following cessation of MPTP treatment (Table IV). Inventive compounds (10 mg/kg), or vehicle, were also administered p.o. along with the MPTP for 5 days, as well as for an additional 5 days following cessation of MPTP treatment (Table V). At 18 days following MPTP treatment, the animals were sacrificed and the striata were dissected and homogenized. Immunostaining was performed on saggital and coronal brain sections using anti-tyrosine hydoxylase Ig to quantitate survival and recovery of dopaminergic neurons. In animals treated with MPTP and vehicle, a substantial loss of functional dopaminergic terminals was observed as compared to non-lesioned animals. In another protocol, test compounds were administered only subsequent to MPTP-induced lesioning. Thus, after animals were treated with MPTP for 5 days, an additional 3 days passed before beginning oral drug treatment on day 8. Animals were treated with inventive compounds (0.4 mg/kg), administered orally, once a day for 5 days total. On day 18, the animals were sacrificed and analyzed as described above. Tables IV and V present the percent recovery of dopaminergic neurons in the first (concurrent dosing) paradigms in animals receiving hydantoin derivative compounds.
Tables IV and V, below, show the remarkable neuroregenerative effects of the inventive hydantoin derivative compounds illustrating the neurotrophic capability of these compounds as a class showing that lesioned animals receiving the hydantoin derivative compounds provide a remarkable recovery of TH-stained dopaminergic neurons.

Row | SMILES | % Recovery of dopaminergic neurons
1 | O=C1[C@@H]2CCCN2C(=O)N1c1ccccc1-c1ccccc1 [Compound 2, (7aS)-2-(2′-Phenyl)phenylperhydropyrrolo[1,2-c]imidazole-1,3-dione] | 38.40%

Same assay, conditions: Mus musculus, Neuron, po, 432 h; 10 mg/kg p.o. with MPTP (30 mg/kg i.p.) for 5 days plus 5 further days; male CD1 mice; anti-tyrosine hydroxylase immunostaining at 18 days

Row | SMILES | % recovery of dopaminergic neurons at 10 mg/kg
2 | O=C1C2CCCN2C(=S)N1CCCc1ccccc1 (stereo not shown) [Compound 7, 2-(3-phenylpropyl)-3-thioxo-2,5,6,7,7a-pentahydro-2-azapyrrolizin-1-one] | 37.5%
3 | CCCCN1C(=O)C2CCCCN2C1=O (stereo not shown) [Compound 74, 2-butyl-2,5,6,7,8,8a-hexahydro-2-azaindolizine-1,3-dione] | 46.4%
4 | O=C1C2CCCN2C(=S)N1Cc1ccccc1 (stereo not shown) [Compound 4, 2-benzyl-3-thioxo-2,5,6,7,7a-pentahydro-2-azapyrrolizin-1-one] | 49.3%
5 | O=C1C2CCCCN2C(=S)N1CCc1ccccc1 (stereo not shown) [Compound 40, 2-(2-phenylethyl)-3-thioxo-2,5,6,7,8,8a-hexahydro-2-azaindolizin-1-one] | 11%
6 | O=C1C2CCCCN2C(=O)N1Cc1ccccc1 (stereo not shown) [Compound 38, 2-Benzyl-2,5,6,7,8,8a-hexahydro-2-azaindolizine-1,3-dione] | 31.4%
7 | O=C1C2CCCCN2C(=O)N1c1ccccc1 (stereo not shown) [Compound 72, 2-phenyl-2,5,6,7,8,8a-hexahydro-2-azaindolizine-1,3-dione] | 37.2%
8 | O=C1C2CCCCN2C(=S)N1Cc1ccccc1 (stereo not shown) [Compound 39, 2-benzyl-3-thioxo-2,5,6,7,8,8a-hexahydro-2-azaindolizin-1-one] | 11.2%
9 | O=C1C2CCCN2C(=S)N1CCc1ccccc1 (stereo not shown) [Compound 8, 2-(2-phenylethyl)-3-thioxo-2,5,6,7,7a-pentahydro-2-azapyrrolizin-1-one] | 42.5%
10 | CCCCCCCN1C(=O)C2CCCCN2C1=O (stereo not shown) [Compound 41, 2-Heptyl-2,5,6,7,8,8a-hexahydro-2-azaindolizine-1,3-dione] | 8.8%
11 | O=C1[C@@H]2CCCN2C(=O)N1c1ccc(C(F)(F)F)cc1 [Compound 3, (7aS)-2-(4-(Trifluoromethyl)phenyl)perhydropyrrolo[1,2-c]imidazole-1,3-dione] | 78.8%
12 | O=C1C2CCCCN2C(=S)N1CCCc1ccccc1 (stereo not shown) [Compound 43, 2-(3-phenylpropyl)-3-thioxo-2,5,6,7,8,8a-hexahydro-2-azaindolizin-1-one] | 40.1%
13 | CCCCCCCCN1C(=O)C2CCCCN2C1=O (stereo not shown) [Compound 42, 2-Octyl-2,5,6,7,8,8a-hexahydro-2-azaindolizine-1,3-dione] | 17.4%

Same assay, conditions: Mus musculus, Neuron, sc, 432 h; 4 mg/kg s.c. with MPTP (30 mg/kg i.p.) for 5 days plus 5 further days; male CD1 mice; anti-tyrosine hydroxylase immunostaining at 18 days

Row | SMILES | % recovery of dopaminergic neurons at 4 mg/kg
14 | O=C1[C@@H]2CCCN2C(=O)N1c1cccc2ccccc12 [Compound 1, (7aS)-2-(1-Naphthyl)perhydropyrrolo[1,2-c]imidazole-1,3-dione] | 32.2%

Biological target: FKBP-12 peptidyl-prolyl isomerase (rotamase) (Homo sapiens, UniProt P62942)
Sequence (P62942 whole entry): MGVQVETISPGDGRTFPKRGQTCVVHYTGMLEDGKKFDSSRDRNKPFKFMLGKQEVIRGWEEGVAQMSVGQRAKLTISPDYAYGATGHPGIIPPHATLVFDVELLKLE
Test: Ki test procedure: inhibition of FKBP peptidyl-prolyl isomerase (rotamase) activity, chymotrypsin-coupled assay
Format: biochemical
Details: apparent Ki, substrate N-succinyl-Ala-Ala-Pro-Phe-p-nitroanilide
Excerpt: The binding to FBKP12 and inhibition of the peptidyl-prolyl isomerase (rotamase) activity of the compounds used in the inventive methods and pharmaceutical compositions can be evaluated by known methods described in the literature (Harding et al., Nature, 1989, 341:758-760; Holt et al. J. Am. Chem. Soc., 115:9923-9938). These values are obtained as apparent Ki's and are presented for representative compounds in TABLE III.
The cis-trans isomerization of an alanine-proline bond in a model substrate, N-succinyl-Ala-Ala-Pro-Phe-p-nitroanilide, is monitored spectrophotometrically in a chymotrypsin-coupled assay, which releases para-nitroanilide from the trans form of the substrate. The inhibition of this reaction caused by the addition of different concentrations of inhibitor is determined, and the data is analyzed as a change in first-order rate constant as a function of inhibitor concentration to yield the apparent K1 values. […]
The absorbance at 390 nm versus time is monitored for 90 seconds using a spectrophotometer and the rate constants are determined from the absorbance versus time data files.

Row | Ki | SMILES
15 | > 10 µM | O=C1[C@@H]2CCCN2C(=O)N1c1cccc2ccccc12 [Compound 1, (7aS)-2-(1-Naphthyl)perhydropyrrolo[1,2-c]imidazole-1,3-dione]
16 | > 5 µM | CCc1ccccc1N1C(=O)C2CCCN2C1=O (stereo not shown) [Compound 6, 2-(2-ethyl)phenyl-2,5,6,7,7a-pentahydro-2-azapyrrolizin-1,3-dione]

Reference: patent US6974823B2, “Hydantoin derivative compounds, pharmaceutical compositions, and methods of using same” (GPI NIL Holdindgs, Inc., priority 1999, dated 2005)
